Each block holds one molecule with its values, some of them ahead of it.
Legend:
FHIT [1] = molecular target: T1, FHIT (Homo sapiens, UniProt P49789); assay: FHIT hydrolase activity detection assay (Ap3A, ADP-Glo); format: biochemical; conditions: 5 nM FHIT, 500 nM Ap3A, ADP production by ADP-Glo
T1 construct: GST (N, cleaved yes); made in house; host or cells: E. coli BL21 (DE3)
Procedure: 5 nM FHIT protein was mixed with series diluted compounds as indicated in assay buffer (20 mM Tris–HCl, 2 mM DTT, 5 mM MgCl2, pH7.5) in a final DMSO concentration of 1% in a total volume of 20 μL. The mixtures were incubated for 30 min at 25 °C, then 500 nM Ap3A was added. After incubation at 25 °C for 5 min, the production of ADP in the reaction system was detected by ADP-Glo reagent (V6930, Promega) according to the manufacturer’s protocol in 384-well. Luminescence was read by spark (TECAN), an integration time of 1 s per well. And the data were analyzed by GraphPad Prism 7.0.

FHIT (H96N) = molecular target: T2, FHIT (H96N) (Homo sapiens, UniProt P49789, H96N); assay: Fluorescence polarization assay, FHIT H96N-ApppBODIPY binding inhibition; conditions: 5 µM FHIT (H96N), 1 µM ApppBODIPY
T2 construct: GST (N, cleaved yes); made in house; host or cells: E. coli BL21 (DE3)
Procedure: The binding of FHIT (H96N) to fluorescein-labeled substrates ApppBODIPY was analyzed by fluorescence polarization assay in 384-well format for dose–response curve studies using spark instrument (TECAN) according to the protocol reported before. And 5 µM FHIT (H96N) protein was incubated with 1 µM fluorescein-labeled substrates in buffer A (25 mM Tris–HCl, pH 7.5, 5 mM MgCl2 and 2 mM DTT) with series diluted inhibitors as indicated. Each sample was allowed to equilibrate in the solution for 30 min. After 30 min, the steady-state fluorescence anisotropy (mP) was measured. A second reading was taken after 10 min, to ensure that the mixture was well-equilibrated and stable. Less than 5% change was observed between 30 and 40 min measurements. The IC50 value was determined by fitting the binding curves using GraphPad Prism 7.0.

FHIT [2] = molecular target: T1, FHIT; assay: MST assay of the binding between tanshinone compounds and FHIT; conditions: Fig. 4B, FHIT preparation not stated
Procedure: Ten million 293 cells overexpressing GFP-tagged FHIT or free GFP were lysed in 0.5 mL M-PER mammalian protein extraction reagent (Thermo Fisher Scientific). Cell lysates were diluted in PBS buffer to a final concentration at which the fluorescent signals of the GFP proteins were suitable for the detection of the Monolith NT.115 instrument (NanoTemper Technologies). A single point screening assay was developed against GFP-FHIT protein to find potential binding molecules from compound libraries (L1021,APExBIO). For binding affinity detection, a 10µL protein sample was mixed with 10µL ligand at various concentrations as indicated. And the purified proteins were labeled by Red- NHS kit in accordance with the manufacturer’s protocol (MO-L011, NanoTemper Technologies). Then the mixture solutions were loaded into NT.115 standard coated capillaries or premium coated capillaries (NanoTemper Technologies), and the MST measurements were performed at 25 °C. The fluorescence signal during the thermophoresis was monitored and the change in fluorescence was analyzed by software. The Kd was calculated by fitting a standard binding curve to the series diluted ligands. And data were analyzed by GraphPad Prism 7.0.

FHIT [3] = molecular target: T1, FHIT; assay: Fluorescent thin layer enzyme assay with ApppBODIPY (FHIT); format: biochemical; conditions: 10 nM Fhit, 5 µM ApppBODIPY, TLC; read-out: IC50, FHIT hydrolase activity (TLC assay)
Procedure: Fluorescent substrates ApppBODIPY at 5 µM were incubated with purified Fhit protein 10 nM in reactions at 25 °C containing 20 mM Tris–HCl, pH7.5, 150 mM NaCl, and 5 mM MgCl2. Competitive compounds, when indicated at series concentrations, were mixed with a fluorescent substrate. Reaction samples (0.6µL) were spotted on silica TLC plates (MERCK) at 60–120 s intervals. Plates were air-dried and developed in 2-propanol:NH4OH:1,4-dioxane: H2O (50:35:8:7) as reported before. Developed plates were imaged by fluorescein blot (ChemiDoc, Bio-Rad).

HCT116 cells [4] = assay: CCK-8 assay for cell inhibitory rate; format: cell-based, human; conditions: WT HCT116 cells, 2 µM
Procedure: The CCK-8 (Cell-Counting Kit-8) assay was used to detect the cells’inhibitory rate following the manufacturer’s protocol (APExBIO). Cells were seeded into 96-well plates at the density of 4 × 10^3(cells/well) overnight at 37 °C. After that, the culture medium was removed and the cells were treated with different concentrations of TSA (0, 1, 2, 5, 10 µM) or STS (0, 10, 25, 50, 100 µM) for 24 h, 48 h, 72 h respectively. Then 10 μL CCK-8 reagent was added into each well and incubated for another 2 h, OD450 was measured by a microplate reader (spark, TECAN).

HCT116 cells [5] = assay: Colony formation assay; format: cell-based, human; conditions: 1 µM, 14 days
Procedure: ENPP1 hydrolase activity detection assay
ENPP1 protein (4ng/µl) was mixed with series diluted compounds as indicated in assay buffer (50mM Tris-HCl, 2mM CaCl2, 2mM MgCl2, pH9.0) in a final DMSO concentration of 1% in a total volume of 20μL. The mixtures were incubated for 30min at 25°C, then 4µM Ap3A was added. After incubation at 25°C for 10min, ENPP1 should be inactivated at 85°C for 5min.
Then the production of ADP in the reaction system was detected by ADP-Glo reagent (V6930, Promega) according to the manufacturer’s protocol in 384-well. Luminescence was read by spark (TECAN), an integration time of 1 second per well. And the data were analyzed by […]
Fluorescent thin layer enzyme assay for ENPP1
Small molecules, when indicated at series concentrations, were mixed with 2.5µM the fluorescent substrate ApppBODIPY. Then, 10nM purified ENPP1 protein was added to the reaction system at 25°C containing 50mM Tris-HCl pH9.0, 2mM CaCl2, 2mM MgCl2. Reaction samples (0.6µL) were spotted on silica TLC plates (Merck) at 60–120s intervals. Plates were air-dried and developed in 2-propanol:NH4OH:1,4-dioxane: H2O (50:35:8:7) as reported before. Developed plates were imaged by fluorescein blot (ChemiDoc, Bio-rad).
Colony formation assay was performed as described before. Briefly, ~200/well single cells were planted into 6-well plate. […]

WT HCT116 cells = assay: Apoptosis detection by flow cytometry (Annexin V/PI), WT HCT116 cells; format: cell-based, human
Procedure: (§1) HCT116 cells treated with indicated compounds were digested with 0.25% trypsin (Gibco). The cells were harvested by centrifugation at 1000 rpm for 5 min. The trypsinization time should not be too long to prevent false positives. The cells were washed twice with pre-cooled PBS. The cells were resuspended with 1 × annexin-binding buffer and the cell density was adjusted to ~ 1 × 10^6 cells/ml. Then 5µL Alexa Fluor 488 annexin V and 1 µL 100 µg/mL PI working solution (V13241, Invitrogen) was added to each 100 µL cell suspension. The cells were incubated at room temperature in the dark for 15 min. After the incubation, 400 µL 1 × annexin-binding buffer was added to the cells, mixed gently, and kept the samples on ice. Analyze the stained cells by flow cytometry as soon as possible. The V-FITC positive and PI negative cells were recorded as apoptotic cells.

FHIT KO HCT116 cells = assay: Apoptosis detection by flow cytometry (Annexin V/PI), FHIT KO HCT116 cells; format: cell-based, human; conditions: for apoptosis: KO cells
Source text: FHIT gene was deleted in HCT116 cells by CRISPR/Cas9 genome editing. A plasmid pL- CRISPR.EFS.GFP (#57,818, Addgene) encoding both the Cas9 protein and the sgRNA was used. The Cas9 sequence is coupled to a P2A site and EGFP. Expression of the Cas9 protein results in simultaneous expression of EGFP, allowing for the selection of positively transfected cells. Two sgRNA toward exon5 and exon6 of the FHIT gene, respectively, were designed by using the optimized CRISPR design online tool (http://crispr.cos.uni-heidelberg.de). The primers sequences of the sgRNA used were shown as below: sgRNA1 for exon5 forward, 5’[…]3’, reverse, 5’[…] GGACAC3’; sgRNA2 for exon6 forward, 5’[…]3’, reverse, 5’[…]3’. Plasmids containing the right insertion were then sequenced by Sangon Biotech Company (Shanghai, China). The two CRISPR/Cas9 plasmids were co-transfected into HCT116 cells as 1:1 using Lipofectamine3000 (Invitrogen). After 48 h, EGFP positive single cell was sorted into 96-well plates and the plates were left in the incubator for 7–14 days or until small colonies could be seen by the naked eye. Genomic DNA of each well was extracted by QuickExtract DNA Extraction Solution (Epicenter, Madison, WI) to do PCR identification. And the PCR products were then Sanger-sequenced to identify clones that would result in frameshifts and truncated protein products. Sequence alignment and genomic PCR primers were shown as below: forward, 5′[…]3′, revers, 5′[…]3′.
as §1, with “The cells were incubated at room temperature in the dark for 15 min. After the incubation, 400 µL 1 × annexin-binding buffer was added to the cells, mixed gently, and kept the samples on ice. Analyze the stained cells by flow cytometry as soon as possible.” left out

T1 sequence (P49789 whole entry): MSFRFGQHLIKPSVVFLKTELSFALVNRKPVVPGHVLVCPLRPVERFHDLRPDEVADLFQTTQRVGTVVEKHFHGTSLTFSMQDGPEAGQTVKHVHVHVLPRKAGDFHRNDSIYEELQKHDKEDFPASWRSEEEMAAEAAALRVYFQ
T2 sequence (P49789 whole entry H96N): as the sequence (P49789 whole entry) above, with H96N counted along it

Structure (SMILES): Cc1coc2c1C(=O)C(=O)c1c-2ccc2c1CCCC2(C)C [TSA, Tanshinone IIA]
Kd (FHIT [2]): 112 ± 27.3 nM | IC50 (FHIT [3]): 4000 to 6000 nM | growth of HCT116 cells (CCK8) (HCT116 cells [4]): significantly inhibits the growth | colony formation of HCT116 cells (HCT116 cells [5]): clearly abolished the colony formation | apoptosis rate (WT HCT116 cells; 5 µM, 24 h): 13.5% | apoptosis rate (FHIT KO HCT116 cells; FHIT KO cells, 5 µM, 24 h): 4.9%

Structure (SMILES): CC[C@@]1(O)C(=O)OCc2c1cc1n(c2=O)Cc2cc3ccccc3nc2-1 [CPT, camptothecin]
apoptosis (WT HCT116 cells; 1 µM): 24.9% | apoptosis (FHIT KO HCT116 cells; 1 µM): 5.3%

Structure (SMILES): C[C@H]1COC2=C1C(=O)C(=O)c1c2ccc2c1CCCC2(C)C [CST, Cryptotanshinone]
Kd (FHIT [2]): 123 ± 31.7 nM | IC50 (FHIT [3]): 4000 to 6000 nM

The next lines start with results.

IC50 (FHIT [1]): 260 ± 80 nM | IC50 (FHIT (H96N)): 2600 ± 44 nM
Structure (SMILES): Cc1ccc(C(=O)Nc2ccc(S(=O)(=O)O)c3cc(S(=O)(=O)O)cc(S(=O)(=O)O)c23)cc1NC(=O)c1cccc(NC(=O)Nc2cccc(C(=O)Nc3cc(C(=O)Nc4ccc(S(=O)(=O)O)c5cc(S(=O)(=O)O)cc(S(=O)(=O)O)c45)ccc3C)c2)c1 [suramin]

Kd (FHIT [2]): 466 ± 60 nM | IC50 (FHIT [3]): 4000 to 6000 nM
Structure (SMILES): Cc1coc2c1C(=O)C(=O)c1c-2ccc2c(C)cccc12 [TanI, tanshinone I]
apoptosis (WT HCT116 cells; 10 µM): 31.66% | apoptosis (FHIT KO HCT116 cells; 10 µM): 12.7%
